Here are results for one compound from US12702671B2, “Calcineurin inhibitors of the setron family for the treatment of hearing loss” (SENSORION, priority 2015, dated 2026).

Where a name gives a salt, the structure may show the parent alone.

In one experiment the test system is calcineurin. In words: Calcineurin phosphatase activity in cerebellar granule neurons after 4 DIV (malachite green colorimetric assay, Test A). The experiment is classed as cell-based, Wistar rat. The protocol:
According to Test A, phosphatase calcineurin activity is assessed in cerebellar granule neurons (CGNs) using a colorimetric assay kit based on quantification of the green complex formed between malachite green, molybdate and free phosphate released. CGNs are detached from plates, for example by scraping, rinsed in ice-cold tris buffer solution (TBS) and counted. About 10 million cells are lysed in 1 ml of the provided lysis buffer and centrifuged at 150,000×g at 4° C. for 45 min, and the supernatant may be stored at −70° C. until analysis. Prior to calcineurin activity assay, free phosphate and nucleotides are removed from cellular extract by gel filtration. To ensure the complete removal of phosphate, malachite green reagent may be added, which will turn the color green in presence of phosphate. A specific calcineurin substrate is added to phosphate-free cellular extracts and after appropriate incubation period, malachite green reagent is applied. The rapid green color formation from the reaction is measured, for example on a spectrophotometer. The developed color is proportional to the calcineurin phosphatase activity of samples. Absorbance values, read at 620 nm, may thus be transformed to percentage calcineurin activity relative to K25 control treatment (100%). Cerebellar granule cells were dissociated from the cerebellae of 7-day-old Wistar rat pups as described (Kramer et al. 2003, Mol Cell Neurosci 23:325-330). Briefly, the cerebellae were removed, rinsed in HBSS-BSA, minced, digested with 0.025% trypsin and incubated at 37° C. for 15 min. To stop the digestion, DMEM containing 10% fetal calf serum was added; then a single cell suspension was obtained through pipetting up and down the sedimented tissue. Following centrifugation, cells were counted using trypan blue exclusion test in a Burker chamber. This method is based on the ability of viable cells to exclude trypan blue due to their intact cell membranes, leaving them unstained while nonviable cells take up the dye. Cells at 3.2×10^5/cm^2 were seeded in DMEM Hepes modification supplemented with 10% fetal calf serum, 100 μg/ml pyruvate, and 100 μg/ml gentamicin on Polystyrene 12-well tissue culture plates (CELLSTAR) coated with poly-L-lysine. After 24 h, 10 μM cytosine arabinofuranoside was added to inhibit the growth of non-neuronal cells. All pharmacological interventions begun at this time in the culture medium containing 25 mM KCl (K25), which caused depolarization of granule cells and consequently activated gene expression machinery. Moreover, the viability of granule neurons was higher in this milieu and therefore provides the possibility to maintain cells for several days. Indeed, 25 mM KCl is required in the medium for CGN cultures to maintain adequate calcineurin activity and cell maturation and depolarization (Kramer et al., 2003, Mol Cell Neurosci 23:325-330; Vallano et al. 2006, Neuropharmacology 50: 651-660). Cultures received simple medium (K25 control) or medium containing a setron compound in HCl salt form (Tocris Bioscience, Bristol, UK) at concentrations of 10 nM, 100 nM or 1000 nM for 4 days in vitro (DIV). Phosphatase calcineurin activity was assessed in CGNs using a colorimetric assay kit based on quantification of the green complex formed between malachite green, molybdate and free phosphate released. CGNs were detached from plates by scraping, rinsed in ice-cold tris buffer solution (TBS) and counted. About 10 million cells are lysed in 1 ml of the provided lysis buffer and centrifuged at 150,000×g at 4° C. for 45 min, and the supernatant was stored at −70° C. until analysis. Prior to calcineurin activity assay, free phosphate and nucleotides were removed from cellular extract by gel filtration. To ensure the complete removal of phosphate, malachite green reagent was added, which will turn the color green in presence of phosphate. […]

Experiment [1] has as its system acoustic trauma induced hearing loss. As to the kind of experiment: Distortion product otoacoustic emissions (DPOAE) amplitudes after acoustic trauma. The experiment is classed as in vivo, Wistar rats. The protocol:
All experiments were performed using 7 week old male Wistar rats (CERJ, Le Genest, France) in accordance with the French Ministry of Agriculture regulations and European Community Council Directive no. 86/609/EEC, OJL 358. The rats were fed a standard diet ad libitum and maintained on a 12 h light-dark cycle.
Auditory Brainstem Reponses (ABR) and Distortion Product Otoacoustic Emissions (DPOAE) were recording using a RZ6 Auditory Workstation (Tucker-Davis Technologies, Alachua, FL, USA) with animals deeply anesthetized using 90 mg/kg ketamine and 10 mg/kg xylazine and placed on a 35° C. recirculating heating pad inside a sound attenuating cubicle (Med Associates Inc., St. Albans, VT, USA) throughout the experiment.
DPOAEs were recorded and using ER10B+ Low Noise DPOAE microphone (Etymotic Research, Inc., Elk Grove Village, IL, USA) with acoustic stimuli delivered by two calibrated MF-1 speakers in closed-field configuration (Tucker-Davis Technologies, Alachua, FL, USA). DPOAEs were recorded at fixed stimulus levels (L1=L2=70 dB SPL), with an f2/f1 ratio of 1.2. Responses were recorded at 4, 8, 16, 24 and 32 kHz.
Animals were exposed to 121 dB octave band noise (8-16 kHz) for 2 h in groups of 4 rats, placed in individual compartments of a custom built circular cage placed on a 30 cm diameter platform rotating at 3 turns/minute (Aqila Innovation, Valbonne, France). The calibrated octave band noise generated by the RZ6 SigGen software was further amplified by a Crown D-75 amplifier in bridge mode (Crown Audio, Elkhart, IN, USA) and delivered by four Beyma CP16 compression tweeters (Acustica Beyma S. L., Moncada, Valencia, Spain) positioned 39 cm above the rotating platform, each 10 cm from the platform center.
Animals were treated by intraperitoneal injection daily for 14 days beginning immediately after acoustic trauma induction and subsequently repeated every 24 hours. The setron compounds granisetron HCl, ondansetron HCl, tropisetron HCl and azasetron HCl (Tocris Bioscience, Bristol, UK) were delivered dissolved in saline solution (1.6 mL/kg) while Tacrolimus (Selleck Chemicals, Houston, TX, USA) was dissolved in solution composed of 10% ethanol-100%/10% Kolliphor EL/1% Tween 80/79% saline (1.0 mL/kg). Placebo treated animals received injections of 1.6 mL/kg saline following the same treatment schedule.
Statistical analysis was performed using two-way ANOVA (Audiometry data: frequency and treatment group. Cochleograms: normalized distance from apex and treatment group) followed by Holm-Sidak post-hoc test for multiple comparisons. Results are given as mean±SEM and a p value less than or equal to 0.05 considered significant.
Baseline line audiometry (ABR and DPOAE measures) was performed for each animal 3 days before acoustic trauma was induced. Subsequently, audiometry measures were repeated 24 h and 14 days after acoustic trauma.
To quantify and compare the difference in treatment effects between groups while taking into account individual baseline and trauma variability, the hearing loss (ABR threshold shift & DPOAE amplitude loss) at D14 relative to baseline, as well as the functional recovery of hearing from 24 h to D14 (ABR threshold shift & DPOAE amplitude loss) were determined for all treatment groups.

Setting [2] is: i.p. daily for 14 days after acoustic trauma, same doses as E4.

Consider `CN1C(=O)COc2c(C(=O)NC3CN4CCC3CC4)cc(Cl)cc21` (stereo not drawn) [azasetron HCl, N-(1-azabicyclo[2.2.2]octan-8-yl)-6-chloro-4-methyl-3-oxo-1,4-benzoxazine-8-carboxamide], for which the “effect on calcineurin phosphatase activity” value in the experiment on calcineurin (CGNs in K25 medium, 10, 100 or 1000 nM for 4 DIV, relative to K25 control (100%)) is given as “significantly inhibited”. For the same compound, the “change of calcineurin inhibition with increasing concentration” value in the experiment on calcineurin (CGNs, 4 DIV, 10-1000 nM) is “increased to different degree with increasing concentrations”. In addition, in the experiment with calcineurin (CGNs, 4 DIV, tested at 10, 100, 1000 nM, p<=0.05 vs K25 control), the “concentrations at which calcineurin inhibition was significant” value turned out to be 1000 nM. Further, the “reduction of DPOAE amplitudes loss compared to placebo treatment” value in experiment [1] (day 14, i.p. daily for 14 days after acoustic trauma) is ~ 60%. Also, in experiment [1] (setting [2]), the “DPOAE amplitude loss from baseline to day 14 compared to placebo” value is “significantly reduced loss of DPOAE amplitudes” and the “recovery of DPOAE amplitudes from 24 h post trauma to day 14 compared to placebo” value was “significantly improved recovery of DPOAE amplitudes”.
